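Where inhibition never reached the appropriate level, the endpoint shown equals the highest concentration tested. Otherwise, values were interpolated linearly from a five-concentration, 48-hour dose response in 96-well plates. GI50 is the concentration that inhibits growth by half.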 Calls of active or inactive are those of the source. Cut-off read from the data, not from the text of the source: active = GI50 up to about 1.1 µM and inactive = higher.
Columns and labels:
Experiment in all cases: inhibition of tumour cell growth, NCI panel, 48 h
[1] = tested on: SK-MEL-2
[2] = tested on: HOP-92
[3] = tested on: UACC-257
[4] = tested on: HOP-62
[5] = tested on: SF-268
[6] = tested on: MOLT-4
[7] = tested on: RXF 393
[8] = tested on: Hs-578T
[9] = tested on: HCC 2998
[10] = tested on: U-251
[11] = tested on: MDA-N
[12] = tested on: SK-MEL-28
[13] = tested on: OVCAR-3
[14] = tested on: K562
[15] = tested on: SF-295
[16] = tested on: KM12
[17] = tested on: COLO 205
[18] = tested on: SF-539
[19] = tested on: OVCAR-8
[20] = tested on: SN12C
[21] = tested on: HT-29
[22] = tested on: 786-0
[23] = tested on: A498
[24] = tested on: HCT-116
[25] = tested on: LOX IMVI
[26] = tested on: PC-3
[27] = tested on: OVCAR-5
[28] = tested on: RPMI-8226
[29] = tested on: Malme-3M
[30] = tested on: SK-MEL-5
[31] = tested on: TK-10
[32] = tested on: HL-60
[33] = tested on: ACHN
[34] = tested on: MDA-MB-231
[35] = tested on: NCI-H522
[36] = tested on: MDA-MB-435
[37] = tested on: DU-145
[38] = tested on: OVCAR-4
[39] = tested on: NCI-H460
[40] = tested on: IGROV-1
[41] = tested on: SNB-75
[42] = tested on: EKVX
[43] = tested on: T47D
[44] = tested on: NCI/ADR-RES
[45] = tested on: MCF7
[46] = tested on: CAKI-1
[47] = tested on: M14
[48] = tested on: NCI-H23
[49] = tested on: A549
[50] = tested on: UO-31
[51] = tested on: SW-620
[52] = tested on: SR
[53] = tested on: CCRF-CEM
[54] = tested on: HCT-15
[55] = tested on: BT-549
[56] = tested on: SNB-19
[57] = tested on: SK-OV-3
[58] = tested on: UACC-62
[59] = tested on: NCI-H226

## COC(=O)c1c(CC(Cc2ccc3c(c2)CCCC3)C(=O)OC)ccc2c1CCCC2 (stereo not given)
[1]
  GI50: > 100 µM (inactive)
[2]
  GI50: 23 µM (inactive)
[3]
  GI50: 24 µM (inactive)
[4]
  GI50: > 100 µM (inactive)
[5]
  GI50: 55.3 µM (inactive)
[6]
  GI50: 27.2 µM (inactive)
[7]
  GI50: 60.5 µM (inactive)
[8]
  GI50: > 100 µM (inactive)
[9]
  GI50: 23.1 µM (inactive)
[10]
  GI50: 98.2 µM (inactive)
[11]
  GI50: 77.1 µM (inactive)
[12]
  GI50: > 100 µM (inactive)
[13]
  GI50: > 100 µM (inactive)
[14]
  GI50: 32.9 µM (inactive)
[15]
  GI50: > 100 µM (inactive)
[16]
  GI50: 40.3 µM (inactive)
[17]
  GI50: 19.9 µM (inactive)
[18]
  GI50: > 100 µM (inactive)
[19]
  GI50: > 100 µM (inactive)
[20]
  GI50: > 100 µM (inactive)
[21]
  GI50: 24.4 µM (inactive)
[22]
  GI50: > 100 µM (inactive)
[23]
  GI50: > 100 µM (inactive)
[24]
  GI50: 72.8 µM (inactive)
[25]
  GI50: 43 µM (inactive)
[26]
  GI50: 38.7 µM (inactive)
[27]
  GI50: > 100 µM (inactive)
[28]
  GI50: 24.9 µM (inactive)
[29]
  GI50: 38 µM (inactive)
[30]
  GI50: 29.4 µM (inactive)
[31]
  GI50: > 100 µM (inactive)
[32]
  GI50: 16.6 µM (inactive)
[33]
  GI50: 45.1 µM (inactive)
[34]
  GI50: > 100 µM (inactive)
[35]
  GI50: > 100 µM (inactive)
[36]
  GI50: 42.4 µM (inactive)
[37]
  GI50: > 100 µM (inactive)
[38]
  GI50: 5.68 µM (inactive)
[39]
  GI50: 88.5 µM (inactive)
[40]
  GI50: > 100 µM (inactive)
[41]
  GI50: > 10 µM (inactive)
[42]
  GI50: 19.5 µM (inactive)
[43]
  GI50: 35.8 µM (inactive)
[44]
  GI50: > 100 µM (inactive)
[45]
  GI50: 20.6 µM (inactive)
[46]
  GI50: > 100 µM (inactive)
[47]
  GI50: > 100 µM (inactive)
[48]
  GI50: 69.5 µM (inactive)
[49]
  GI50: 37 µM (inactive)
[50]
  GI50: 82.8 µM (inactive)
[51]
  GI50: > 100 µM (inactive)
[52]
  GI50: 34.7 µM (inactive)
[53]
  GI50: 35.4 µM (inactive)
[54]
  GI50: 46.2 µM
[55]
  GI50: > 100 µM (inactive)
[56]
  GI50: > 100 µM (inactive)
[57]
  GI50: 39.2 µM (inactive)
[58]
  GI50: > 100 µM (inactive)

## CC1OC(OC2C(O)COC(OC3C(C)OC(OC4C(OC(=O)[C@]56CCC(C)(C)C[C@@H]5C5=CCC7[C@@]8(C)C[C@H](O)[C@H](OC9OC(CO)C(O)C(OC%10OC(CO)C(O)C(O)C%10O)C9O)[C@@](C)(CO)[C@@H]8CC[C@@]7(C)[C@]5(C)CC6)OCC(O)C4O)C(O)C3O)C2O)C(O)C(O)C1O (stereo not given in full)
[1]
  GI50: 19.8 µM (inactive)
[2]
  GI50: 20.6 µM (inactive)
[3]
  GI50: 18.3 µM (inactive)
[4]
  GI50: 14.3 µM (inactive)
[5]
  GI50: 21.4 µM (inactive)
[6]
  GI50: 15.5 µM (inactive)
[7]
  GI50: 12.1 µM (inactive)
[8]
  GI50: 19.5 µM (inactive)
[9]
  GI50: 16.2 µM (inactive)
[10]
  GI50: 17.5 µM (inactive)
[11]
  GI50: 17.1 µM (inactive)
[12]
  GI50: 8.75 µM (inactive)
[13]
  GI50: 14.9 µM (inactive)
[14]
  GI50: 31.2 µM (inactive)
[15]
  GI50: 14.4 µM (inactive)
[16]
  GI50: 18.8 µM (inactive)
[17]
  GI50: 5.15 µM (inactive)
[18]
  GI50: 18.4 µM (inactive)
[59]
  GI50: 23.1 µM (inactive)
[19]
  GI50: 17 µM (inactive)
[20]
  GI50: 10.6 µM (inactive)
[21]
  GI50: 17.2 µM (inactive)
[22]
  GI50: 16.1 µM (inactive)
[23]
  GI50: 11.8 µM (inactive)
[24]
  GI50: 17.7 µM (inactive)
[25]
  GI50: 18 µM (inactive)
[26]
  GI50: 11 µM (inactive)
[27]
  GI50: 12.2 µM (inactive)
[28]
  GI50: 18.3 µM (inactive)
[29]
  GI50: 13.8 µM (inactive)
[30]
  GI50: 16 µM (inactive)
[31]
  GI50: 18.8 µM (inactive)
[33]
  GI50: 17.7 µM (inactive)
[34]
  GI50: 16.3 µM (inactive)
[35]
  GI50: 15.5 µM (inactive)
[36]
  GI50: 20.9 µM (inactive)
[37]
  GI50: 14.6 µM (inactive)
[38]
  GI50: 14.9 µM (inactive)
[39]
  GI50: 19 µM (inactive)
[41]
  GI50: 18.9 µM (inactive)
[42]
  GI50: 12.8 µM (inactive)
[43]
  GI50: 16 µM (inactive)
[44]
  GI50: 14.5 µM (inactive)
[45]
  GI50: 16.4 µM (inactive)
[46]
  GI50: 3.19 µM (inactive)
[47]
  GI50: 13 µM (inactive)
[48]
  GI50: 14.9 µM (inactive)
[49]
  GI50: 14.4 µM (inactive)
[50]
  GI50: 4.17 µM (inactive)
[51]
  GI50: 14.5 µM (inactive)
[52]
  GI50: 13.1 µM (inactive)
[53]
  GI50: 14.7 µM (inactive)
[54]
  GI50: 19.7 µM
[55]
  GI50: 22.4 µM (inactive)
[56]
  GI50: 16.4 µM (inactive)
[57]
  GI50: 15.7 µM (inactive)
[58]
  GI50: 22.3 µM (inactive)
